Results from PubChem BioAssay (NCI).
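A five-concentration, 48-hour dose response in 96-well plates underlies each endpoint, interpolated linearly between surrounding concentrations. TGI marks complete inhibition of growth.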

Key:
Assay in all cases: NCI-60 cell line screen, 48 h
CCRF-CEM leukemia = tested on: CCRF-CEM leukemia
HS 578T breast = tested on: HS 578T breast
IGROV1 ovarian = tested on: IGROV1 ovarian
K-562 leukemia = tested on: K-562 leukemia
KM12 colon = tested on: KM12 colon
LOX IMVI melanoma = tested on: LOX IMVI melanoma
MCF7 breast = tested on: MCF7 breast
NCI-H460 lung = tested on: NCI-H460 lung
NCI/ADR-RES ovarian = tested on: NCI/ADR-RES ovarian
OVCAR-3 ovarian = tested on: OVCAR-3 ovarian
OVCAR-5 ovarian = tested on: OVCAR-5 ovarian

Row | Structure (SMILES) | TGI (CCRF-CEM leukemia) | TGI (HS 578T breast) | TGI (IGROV1 ovarian) | TGI (K-562 leukemia) | TGI (KM12 colon) | TGI (LOX IMVI melanoma) | TGI (MCF7 breast) | TGI (NCI-H460 lung) | TGI (NCI/ADR-RES ovarian) | TGI (OVCAR-3 ovarian) | TGI (OVCAR-5 ovarian)
1 | CN1CC(c2ccccc2)=Cc2c1ccc(N)c2N=N | > 100 µM | > 100 µM | > 100 µM | > 100 µM | > 100 µM | > 100 µM | > 100 µM | > 100 µM | > 100 µM | > 100 µM | > 100 µM
2 | COC(=O)C1Cc2c(C)cccc2C1=O (stereo unspecified) | > 100 µM | > 100 µM | > 100 µM | > 100 µM | > 100 µM | > 100 µM | > 100 µM | > 100 µM | > 100 µM | > 100 µM | > 100 µM
3 | CC1C(c2ccc(N(C)C)cc2)c2cc3c(cc2OC1N1CCCC1)OCO3 (stereo unspecified) | > 100 µM | 78 µM | > 100 µM | 97.3 µM | > 100 µM | > 100 µM | > 31.6 µM | > 95.3 µM | > 94.1 µM | > 100 µM | > 100 µM
4 | Nc1c(Br)cc(-c2cc(Br)c(N)c(Br)c2)cc1Br | > 100 µM | > 100 µM | > 100 µM | > 100 µM | > 100 µM | > 100 µM | > 100 µM | > 100 µM | > 100 µM | > 100 µM | > 100 µM
5 | CCOC(=O)C1(Cc2ccc(C)cc2)Cc2ccc(C)cc2C1=O (stereo unspecified) | 64.1 µM | > 100 µM | > 100 µM | > 41.4 µM | > 72.3 µM | > 65 µM | 28.3 µM | 82.4 µM | 32.5 µM | > 100 µM | > 100 µM
6 | CCC1(O)C=CC(=O)C=C1 | > 100 µM | > 100 µM | 40.6 µM | > 100 µM | 33.5 µM | 32.4 µM | > 100 µM | > 83.2 µM | > 66.8 µM | 69.6 µM | > 100 µM
7 | O=C(CCSC(CC(=O)c1ccc(Cl)cc1)c1ccc(Cl)cc1)Nc1ccc(Cl)cc1 (stereo unspecified) | 5.55 µM | 64.1 µM | 29.6 µM | 18.6 µM | 12.4 µM | 18.3 µM | 15.3 µM | 28.6 µM | 40.2 µM | 27.1 µM | 31.6 µM
8 | COC(=O)Cc1c([C@@H]2Nc3ccccc3[C@H]2CC(=O)OC)[nH]c2ccccc12 | > 100 µM | > 100 µM | > 100 µM | 77.7 µM |  | > 100 µM | > 100 µM | 65.5 µM | > 100 µM | 42.8 µM | > 100 µM
9 | CN(NC(=O)c1ccco1)C1=NCCCCN1 | > 100 µM | > 100 µM | > 100 µM | > 100 µM | > 100 µM | > 100 µM | > 100 µM | > 100 µM | > 100 µM | > 100 µM | > 100 µM
10 | COc1c2nc(CCl)n(C)c(=O)c2c(OC)c2c(=O)n(C)c(CCl)nc12 | 2.09 µM | 95 µM | 4.56 µM | 7.83 µM | 2.46 µM | 1.75 µM | 2.36 µM | 4.66 µM | 6.88 µM | 5.68 µM | 7.75 µM
11 | COc1ccc(-c2nc3ncccn3c2-c2ccc(S(C)=O)cc2)cc1 (stereo unspecified) | > 100 µM | > 100 µM | > 100 µM | > 100 µM | > 100 µM | > 100 µM | > 100 µM | > 100 µM | > 100 µM | > 100 µM | > 100 µM
12 | O=c1cnn(C2OC(CO)C(O)C(F)C2O)c(=O)[nH]1 (stereo unspecified) | > 100 µM | > 100 µM | > 100 µM | > 100 µM | > 100 µM | > 100 µM | > 100 µM | > 100 µM | > 100 µM | > 100 µM | > 100 µM
13 | COc1ccc2nc3ccc(OC)cc3c(S(=O)Cc3ccc([N+](=O)[O-])cc3)c2c1 (stereo unspecified) | > 21.9 µM | 25.9 µM | 11.1 µM | > 100 µM | 42 µM | 34.7 µM | 4.26 µM | 67.4 µM | 62.3 µM | 14.2 µM | 34.5 µM
14 | C[N+]1(C)CC=C(N2CCOCC2)CC1 | > 10 µM | > 10 µM | > 10 µM | > 10 µM | > 10 µM | > 10 µM | > 10 µM | > 10 µM | > 10 µM | > 10 µM | 
15 | COc1ccc(C[C@@H]2CN(C(=O)c3ccccc3)[C@H](Cc3ccc(O)cc3)CN2C(=O)c2ccccc2)cc1Br | > 100 µM | > 100 µM | > 100 µM | > 100 µM | > 100 µM | > 100 µM | > 100 µM | > 100 µM | > 100 µM | > 100 µM | > 100 µM
16 | CC(=O)N[C@@H](Cc1ccc(O)cn1)C(=O)NCc1cccc(F)c1 | > 100 µM | > 100 µM | > 100 µM | > 100 µM | > 100 µM | > 100 µM | > 100 µM | > 100 µM | > 100 µM | > 100 µM | > 100 µM
17 | Cc1c2c(n3c(nc4ccccc43)c1C#N)N(c1ccc(Cl)cc1)CC2 | > 100 µM | > 100 µM | > 100 µM | > 100 µM |  | > 100 µM | > 100 µM | > 100 µM | > 100 µM | > 100 µM | > 100 µM
18 | Cc1ccc(N=Nc2c(O)c3ccccc3[nH]c2=O)c(S(=O)(=O)N(C)C)c1 | > 100 µM | > 100 µM | > 100 µM | > 100 µM | > 100 µM | > 100 µM | > 100 µM | > 100 µM | > 100 µM | > 100 µM | > 100 µM
19 | O=S(=O)(O)c1ccc(NN(c2c(O)ccc3ccccc23)S(=O)(=O)O)cc1 | > 100 µM | > 100 µM | > 100 µM | > 100 µM | > 100 µM | > 100 µM | > 100 µM | > 100 µM | > 100 µM | > 100 µM | > 100 µM
20 | O=c1c2cc([N+](=O)[O-])ccc2n2n1Cc1ccccc1CC2 | > 100 µM | > 100 µM | > 100 µM | > 100 µM | > 100 µM | > 100 µM | > 100 µM | > 100 µM | > 100 µM | > 100 µM | > 100 µM
21 | Oc1ccc(-c2cc(-c3c(O)cc(O)cc3O)on2)cc1 | > 100 µM | > 100 µM | > 100 µM | > 100 µM | > 100 µM | > 100 µM | > 100 µM | > 100 µM | > 100 µM | > 100 µM | > 100 µM
22 | Cc1cc(Br)c(N2C3=C(CC4=C2CCCC4=O)C(=O)CCC3)c(Br)c1 | > 100 µM | > 100 µM | > 100 µM | > 100 µM | > 100 µM | > 100 µM | > 100 µM | > 100 µM | > 100 µM | > 100 µM | > 100 µM
23 | CCOC(=O)c1cc2cc(Cc3ccc4[nH]c(C(=O)OCC)cc4c3)ccc2[nH]1 | > 100 µM | 72.8 µM | 35.7 µM | > 100 µM | > 100 µM | > 100 µM | > 100 µM | > 100 µM | 52.6 µM | > 100 µM | > 100 µM
24 | O=C1CC(NC(=O)C(F)(F)F)c2c(Br)sc(N3CCC(c4ccccc4)CC3)c21 (stereo unspecified) | > 100 µM | 79.6 µM | > 100 µM | > 100 µM | > 100 µM | > 100 µM | > 100 µM | > 100 µM | > 100 µM | 95.8 µM | > 100 µM
25 | c1ccc(COc2ccc(C[P+](c3ccccc3)(c3ccccc3)c3ccccc3)cc2)cc1 | 7.28 µM | 3.19 µM | 12.3 µM | 2.17 µM | 1.66 µM | 2.56 µM | 1.52 µM | 3.81 µM | 49.1 µM | 11 µM | 2.2 µM
26 | COc1ccc(-n2c(CCCC(=O)O)nc3c2C(=O)c2ccccc2C3=O)cc1 | > 100 µM | > 100 µM | > 100 µM | > 100 µM | > 100 µM | > 100 µM | > 100 µM | > 100 µM | > 100 µM | 92.9 µM | > 100 µM
27 | O=C(C=P(c1ccccc1)(c1ccccc1)c1ccccc1)C12CC3CC(CC(C3)C1)C2 | 32.7 µM | 37.6 µM | 30.8 µM | 25.2 µM | 32 µM | 41.5 µM | 35.8 µM | 31.3 µM | 37.6 µM | 28.5 µM | 32.7 µM
28 | O=C(Cc1ccc(Cl)c(Cl)c1)NCCCN1CCN(CCCN2CCCCC2)CC1 | 34 µM | > 100 µM | 75 µM | 7.5 µM | 31.2 µM | 30.2 µM | 34.2 µM | 33.6 µM | > 100 µM | 80.7 µM | 46.6 µM
29 | CCOC(=O)CC(C)C(C#N)(OP1(=O)OC(c2ccccc2)C(C)N1C)c1ccccc1 (stereo unspecified) | > 100 µM | > 100 µM | > 100 µM | > 100 µM | > 100 µM | > 100 µM | > 100 µM | > 100 µM | > 100 µM | > 100 µM | > 100 µM
30 | CCOC(=O)c1nc2c3c(ncn2n1)Oc1c(c(-c2ccccc2)nn1-c1ccccc1)C3c1ccc(OC)c(OC)c1 (stereo unspecified) | > 100 µM | 38 µM | > 100 µM | > 100 µM |  | > 100 µM | > 100 µM | > 100 µM | > 100 µM | > 100 µM | > 100 µM
